Laboratory results: patent US20240415793A1, “Neuroprotective composition comprising pyruvate and citrate” (N.V. Nutricia, priority 2022, published 2024)

Experiments:
neuroglial cell cultures = assay: Seahorse assay (OCR/ECAR), acute effects under seizure- and ketogenic diet-like conditions; type: cell-based, rat; conditions: HBSS, 0.1 mM Mg2+, 1 mM glucose, 500 μM bHB, 1 mM pyruvate, 1 mM citrate as added, vs control medium
Description: (§1) The oxygen consumption rates (OCRs) and extracellular acidification rates (ECARs) of cells seeded in 96-well plates were monitored in real time at 37° C. in unbuffered Hanks Balanced Salt Solution (HBSS). The OCRs represent foremost mitochondrial respiration, and to a minor extent non-mitochondrial respiration. The ECARs relate foremost to the acidification of the medium with lactate produced through glycolysis and secreted by the cells into the medium (Table 1).
(§2) During the Seahorse run, both the OCRs and ECARs were measured simultaneously at baseline and following the injection of compounds by the Seahorse instrument (Table 1). HBSS was supplemented with glucose from the start and no glucose was injected through the Seahorse instruments. Measurements were repeated three times at baseline and three times after each compound injection.
(§3) After the initial baseline measurement, oligomycin (OM) was injected. OM blocks mitochondrial ATP synthase (complex V) and therefore decreases mitochondrial respiration. The OCRs after OM injection are due to the mitochondrial proton leak. They enable to determine whether the test nutrients impact the proton leak. The difference in OCRs at baseline and after OM injection is the amount of oxygen used for mitochondrial ATP synthesis at baseline. From this difference in OCR, the mitochondrial ATP production rates are calculated.
After OM, uncoupling agent carbonyl cyanide-p- trifluoromethoxyphenyl-hydrazon [FCCP] was injected which collapses the proton gradient across the inner mitochondrial membrane established during respiration and required for ATP synthesis. The cells attempt to restore the proton gradient following FCCP injection by maximizing respiration. The OCRs measured after FCCP injection therefore represent the maximal respiratory capacity of the mitochondria in the sample and enable to determine whether test nutrients impact the maximal respiratory capacity of the mitochondria.
Finally, Antimycin A, a complex III inhibitor, and Rotenone, a complex I inhibitor, were co-injected, both blocking the respiratory chain at different sites to entirely shut down mitochondrial respiration and determine the non-mitochondrial respiration. The latter is necessary to correct all OCRs and obtain the mitochondrial OCRs.
The ECARs were measured simultaneously at baseline and after OM and FCCP injection. The glycolytic ATP production was calculated from the baseline ECARs. The subsequent injection of OM pushed the cells to maximize their glycolytic ATP production to compensate for the loss in mitochondrial ATP production inflicted by OM. The further addition of FCCP drove mitochondrial respiration to a maximum and this eventually led to a further increase in glycolytic rates providing pyruvate into the TCA cycle to sustain maximal respiration. Therefore, the ECARs after FCCP injection were used to determine the maximum glycolytic capacity of the cells.
To assess the effect of citrate and pyruvate under seizure- and ketogenic diet-like conditions a batch of cells was switched one hour prior to the Seahorse run to HBSS medium (which is a nutrient deprived culture medium) containing low (1 mM) glucose, 500 μM bHB and low (0.1 mM) Mg^2+, 1 mM citrate or 1 mM pyruvate (FIG. 6). The ketone p-hydroxybutyrate (bHB) was included during the Seahorse run at a concentration of 500 μM to mimic the nutrient environment of a ketogenic diet. This bHB concentration corresponds to the circulating bHB concentration of a mild ketogenic diet such as the Modified Atkins Diet.
For the Seahorse assay that was run under seizure- and ketogenic diet like-conditions the cells were then incubated in HBSS medium containing low (0.1 mM) Mg^2+ and one of the following additions: • i) 1 mM glucose (control medium), • ii) 500 μM bHB, • iii) 500 μM bHB plus 1 mM citrate, • iv) 500 μM bHB plus 1 mM pyruvate or • v) 500 μM bHB with 1 mM citrate plus 1 mM pyruvate. […]

[1] = test system: primary rat neuronal-glial cell cultures; assay: Seahorse assay (OCR/ECAR), acute 1 h nutrient pre-incubation, resting or seizure-like conditions; type: cell-based
[2] = test system: primary mouse neuroglial cultures; assay: Cell death by high content imaging (Hoechst/NeuN nuclear shrinkage) after chronic hyperstimulation; type: cell-based; conditions: 1 mM; for dead neuron count (neuron death): FIG. 10F/11F
Description: To determine whether pyruvate and citrate protect neurons and glial cells from cell death induced by chronic electrical hyperstimulation. To assess protection from cell death induced by repeated hyperstimulation, primary mouse neuroglial cultures were assayed. Neuroglial cell cultures were prepared and grown until DIV14 as described above. From DIV14 until DIV17 they were switched to NBM containing B27, low (2.5 mM) glucose, and low (0.1 mM) Mg^2+ or high (0.8 mM) Mg^2+. Incubation in low (0.1 mM) Mg^2+ medium increases the neuronal firing rates, thus creating a state of chronic hyperstimulation. The test nutrients (pyruvate or citrate) were supplied through the medium from DIV14 until DIV17. On DIV17, the cell nuclei were stained with the Hoechst dye and co-immunolabelled for NeuN, a protein found only in the nuclei of neurons. The neuronal and non-neuronal cell nuclei were scored for nuclear shrinkage, a hallmark of cell death, by high content imaging.
To assess cell death by high content imaging the cells were fixed on DIV17 in 1% formaldehyde, permeabilized with ethanol and incubated with a rabbit polyclonal IgG antibody against NeuN, a neuron-specific protein localized to the nucleus, followed by detection with a secondary anti-rabbit IgG antibody linked to a red fluorescent label. Neuronal and non-neuronal cell nuclei were then counterstained with the blue fluorescent nuclear dye Hoechst. The nuclei were counted by a high content imager based on signal intensity and size. A cut-off value was applied to exclude objects of low signal intensity considered noise. Then, cut-off values were applied to exclude objects with an area below 30 μM^2 considered cell debris and objects with an area above 300 μM^2 considered cell clumps. A boundary of 60 μM^2 was set to distinguish between nuclei from alive and dead cells. Objects areas of 30 μM^2 to 60 μM^2 were counted as nuclei from dead cells, while object areas of 60 μM^2 to 300 μM^2 were counted as nuclei from alive cells. The counting was done at 20-fold magnification on a fixed number of optical fields per well. The counts of nuclei from dead neurons or dead cells were related to the number of alive neurons or alive cells, respectively, in the same well.
Neuroglial cell cultures were supplemented with 1 mM citrate from DIV14 until DIV17. On DIV17, total cell death and neuron-specific cell death were quantified by high content imaging. The total number of Hoechst positive objects or NeuN positive objects prior to applying cut-off values for the signal intensity and the area size was equal between the different groups (FIG. 10 A, D).

[3] = test system: primary rat neuronal-glial cell cultures; assay: Seahorse assay (OCR/ECAR), acute 1 h nutrient pre-incubation, resting or seizure-like conditions; type: cell-based; conditions: 0.25 mM and 1 mM pyruvate in low Mg2+ medium vs low Mg2+ medium without pyruvate
Description: A Seahorse assay was performed on primary rat neuronal-glial cell cultures to determine the impact of pyruvate and citric acid on glycolytic rates and lactate delivery, mitochondrial respiration and total (glycolytic and mitochondrial) ATP production.
Rat cortical cells were isolated from embryonic day 18 embryos using a combination of enzymatic and mechanical dissociation of brain cortical rat tissue. Immediately after dissociation, the cells were seeded at a density of 500′000 cells per mL in 96-well plates and grown at 37° C. for two weeks from day in vitro (DIV) 0 until DIV14 in Neurobasal medium supplemented with 2% (v/v) B27, 0.8 mM Magnesium (Mg2+), 25 mM glucose and 1% (v/v) Penicillin/Streptomycin. During this time neuronal axons grew out and formed synaptic contacts. In addition, glial cells, foremost astrocytes, grew and formed contacts with neurons. The incubation in 25 mM glucose accelerated the differentiation and network growth of neurons.
From DIV14 until DIV17, the cells were incubated in Neurobasal medium supplemented with 2% (v/v) B27, 0.8 mM Mg2+, 5 mM glucose and 1% (v/v) Penicillin/Streptomycin. The switch from high to low glucose was done to approach the low intracerebral glucose concentration of the human brain and create a more physiological metabolic environment.
The switch from 5 mM to 1 mM glucose matched the glucose concentrations in the human brain. Meanwhile the switch from high (0.8 mM) to low (0.1 mM) Mg^2+ increases the electrical firing frequency of neurons because Mg2+ is an inhibitor of excitatory NMDA-type ionotropic glutamate receptors, which account for most of the neuronal firing in this cell culture model. The increase in neuronal firing caused by incubation in 0.1 mM Mg^2+ increases the energy production of neurons and glial cells as reflected in the increase in basal respiration (FIG. 1B and E). After 1 hour of pre-incubation in the Seahorse medium containing the nutrients, the oxygen consumption rate [OCRs] and extracellular acidification rate [ECARs] of the neuroglial culture were measured in the Seahorse assay.
as §1, §2, §3
After OM, uncoupling agent carbonyl cyanide-p- trifluoromethoxyphenyl-hydrazon [FCCP] was injected which collapses the proton gradient across the inner mitochondrial membrane established during respiration and required for ATP synthesis. The cells attempt to restore the proton gradient following FCCP injection by maximizing respiration. […]

CC(O)CC(=O)O (centres unmarked) [bHB, b-hydroxybutyrate]
change in basal glycolytic ATP production (neuroglial cell cultures; FIG. 6A): did not alter
change in total (mitochondrial and glycolytic) ATP production (neuroglial cell cultures; FIG. 6A): did not impact
change in basal (mitochondrial) respiration (neuroglial cell cultures; FIG. 6B): did not impact
change in FCCP-driven maximal respiratory capacity (neuroglial cell cultures; FIG. 6D): did not impact
change in basal glycolysis (neuroglial cell cultures; FIG. 7A): did not alter
change in FCCP-driven maximal glycolytic capacity (neuroglial cell cultures; FIG. 7C): did not alter

CC(=O)C(=O)O [pyruvate]
increase in total (mitochondrial and glycolytic) ATP production rates ([1]; 0.25 mM and 1 mM pyruvate in low (0.1 mM) Mg2+ medium vs low Mg2+ medium without pyruvate, FIG. 1A): 400-500%
increase in FCCP-driven maximal respiratory capacity ([1]; 0.25 mM and 1 mM pyruvate in low Mg2+ medium vs low Mg2+ medium without pyruvate, FIG. 1D): 200-250%
increase in dead cell counts from high Mg2+ to low Mg2+ medium ([2]; DIV14-DIV17, chronic hyperstimulation, FIG. 10C/11C): ~1%
dead cell counts ([2]; DIV14-DIV17, high (0.8 mM) Mg2+ medium, FIG. 10C/11C): ~19%
dead neuron count (neuron death) ([2]; DIV14-DIV17, high Mg2+ medium): −1.5%
dead cell counts ([2]; DIV14-DIV17, low (0.1 mM) Mg2+ medium, FIG. 10C/11C): ~20%
dead neuron count (neuron death) ([2]; DIV14-DIV17, low Mg2+ medium): ~1.4%
increase in basal respiration ([3]; FIG. 1B): 30-40%
increase in oligomycin-induced proton leak ([3]; FIG. 1C): 10-15%
increase in glycolytic rates at baseline ([3]; FIG. 2A): 15-20%
increase in glycolytic rates after FCCP injection ([3]; FIG. 2C): 20-30%
